Assay results published in patent publication US10329243B2, “Biphenyl derivative and uses thereof” (XI'AN LIBANG PHARMACEUTICAL CO., LTD, priority 2015, dated 2019).
Like-named read-outs stand apart in the source and are kept apart here.

Experiments:
[1] = tested on: rats with permanent cerebral ischemia injury; assay type: in vivo, SD rats
Description: 336 healthy male SD rats weighing 250-300 g, provided by the Experimental Animal Center of the Fourth Military Medical University, were randomly divided into […]: the sham operation group, the permanent cerebral ischemia model group, and Examples 1-12 groups. The biphenyl derivatives used in each of the Examples 1-12 groups were the same as those in Example 13.
Rats were intraperitoneally injected with 10% chloral hydrate 350 mg/kg after anesthesia and opened up at the center of the neck in accordance with the Zea Longa modified method. The right common carotid artery was separated, and the right external carotid artery branches was ligated. A small opening was made at the distal end of the external carotid artery, and a previously prepared thread was inserted through the common carotid artery and the external carotid artery bifurcation into the internal carotid artery, till the anterior end of the middle cerebral artery, with an immersed depth of 18 to 19 mm. The thread was then secured, and the wound was sutured layer by layer. After the operation, the rats were placed in a clean incubator to wake up. […] The sham operation group, the permanent cerebral ischemia model group, and the Example groups were prepared strictly according to the requirements of the cerebral ischemic reperfusion model, while in the sham operation group the thread was put only into the external carotid artery. The animals were allowed to eat and drink freely after waking up. […] The sham operation group and the permanent cerebral ischemia model group were injected with the same amount of blank PEG400 aqueous solution at the same time point.
The neurological impairment was scored in each group 24 h after the embolism. The scoring was in accordance with the Longa 5-grade method: grade 0: no nerve injury symptom; grade 1: inability of stretching the contralateral forepaw; grade 2: circling to the opposite side; grade 3: tumbling to the opposite side; grade 4: no autonomous activity with loss of consciousness.

brain cell apoptosis = experiment: Apoptosis determination (TUNEL method), cerebral ischemic reperfusion MCAO model; assay type: in vivo, SD rats
Description: Rats were intraperitoneally injected with 10% chloral hydrate 350 mg/kg after anesthesia and opened up at the center of the neck in accordance with the Zea Longa modified method. The right common carotid artery was separated, and the right external carotid artery branches was ligated. A small opening was made at the distal end of the external carotid artery, and a previously prepared thread was inserted through the common carotid artery and the external carotid artery bifurcation into the internal carotid artery, till the anterior end of the middle cerebral artery, with an immersed depth of 18 to 19 mm. The thread was then secured, and the wound was sutured layer by layer. After the operation, the rats were placed in a clean incubator to wake up. […] The sham operation group, the ischemic reperfusion group, and the Example groups were prepared strictly according to the requirements of the cerebral ischemic reperfusion model, while in the sham operation group the thread was put only into the external carotid artery. The animals were allowed to eat and drink freely after waking up. After 2 h, the thread was pulled out to achieve reperfusion. The sham operation group, the ischemic reperfusion group, and the Example groups were administered intravenously the aqueous solution of the biphenyl derivatives in PEG400 at 40 mg/kg (40 mg/kg means that 40 mg of the test compound per kg of the body weight of rats) 30 min before reperfusion and 12 h after reperfusion, respectively. The sham operation group and the ischemic reperfusion group were injected with the same amount of blank PEG400 aqueous solution at the same time point.
24 hours after reperfusion, 8 rats in each group were sacrificed by decapitation, the brain was removed, rinsed with PBS (pH 7.4) at −20° i for 20 min, evenly sliced (with a thickness of 2 mm), stained in a 2% TTC solution at 37°% in the dark for 30 min, fixed in 10% formalin for 24 h, and photographs were taken to analyze the infarct volume. A mixture of femoral arterial and venous blood was drawn from another 8 rats in each group under anesthesia, placed in a low temperature centrifuge at 4° C., centrifuged at 3500 r/min for 20 min, and the supernatant was stored in a refrigerator at −20° C. ready for SOD and MDA detection. After the blood was drawn, a perfusion needle was insert through the apex to the ascending aorta, and saline at 4° C. was rapid infused until the effluent became clear, followed by 4% paraformaldehyde phosphate buffer perfusion for fixation; the brain was removed by craniotomy, and brain tissues 2 mm in front of and behind the optic chiasma were taken and fixed, dehydrated, rendered transparent, impregnated in wax, and embedded. Brain continuous coronary tissue pathological sections were consecutively cut for later use. The remaining 8 rats in each group were sacrificed, brains were removed, the ischemic brain hemispheres were immediately taken on an ice tray, and 10% brain tissue homogenate was prepared for the detection of IL-1β and TNF-α.
The TUNEL method was used for determination. Brain tissue paraffin sections were dewaxed into water, washed with 3% H2O2 to eliminate endogenous peroxidase activity, and rinsed with distilled water for 2 min, repeated 3 times. A labelling solution was added for labelling at 37°t for 2 h, and a blocking solution was added for blocking at room temperature for 30 min. A biotinylated anti-digoxin antibody was added for a reaction at 37°a for 30 min, and SABC was added for a reaction at 37°a for 30 min. The sections were continuously rinsed with TBS for 5 min repeatedly for 4 times, stained with DAB, sufficiently washed, mild counterstained with Hematoxylin, gradient dehydrated with alcohol, made transparent with toluene, sealed and fixed. Five non-overlapping fields in semi-dark band were randomly selected from each section and inputted into the image analysis system.

[2] = permanent cerebral ischemia model rats, 40 mg/kg intravenously 30 min before insertion of thread and 12 h after embolism, scored 24 h after the embolism, Longa grade 0-4
[3] = ischemic reperfusion MCAO rats, 40 mg/kg intravenously, brain sections 24 h after reperfusion, TUNEL, average of five fields

Compound: CC(C)c1cc(-c2cc(C(C)C)c(C(=O)O)c(C(C)C)c2)cc(C(C)C)c1O [Example 8 group, 4′-hydroxy-3,3′,5,5′-tetraisopropylbiphenyl-4-carboxylic acid]
- Average score of neurological impairment [1, 2]: 2.7
- Number of apoptotic cells (brain cell apoptosis; [3]): 24.81 ± 3.35

Compound: CCCc1cc(-c2cc(CCC)c(O)c(C(C)C)c2)cc(C(C)C)c1O [Example 6 group, 4,4′-dihydroxy-3,3′-diisopropyl-5,5′-dipropylbiphenyl]
- Average score of neurological impairment [1, 2]: 2.2
- Number of apoptotic cells (brain cell apoptosis; [3]): 19.47 ± 5.02

Compound: CC(C)c1cc(-c2cc(C(C)C)c(OC(=O)C(N)C(C)C)c(C(C)C)c2)cc(C(C)C)c1O (stereo not shown) [Example 11 group, 4′-hydroxy-3,3′,5,5′-tetraisopropylbiphenyl-2-amino-3-methylbutyrate]
- Average score of neurological impairment [1, 2]: 2.3
- Number of apoptotic cells (brain cell apoptosis; [3]): 24.19 ± 4.29

Compound: CC(=O)Oc1c(C(C)C)cc(-c2cc(C(C)C)c(O)c(C(C)C)c2)cc1C(C)C [Example 1 group, 4′-hydroxy-3,3′,5,5′-tetraisopropylbiphenyl-4-acetate]
- Average score of neurological impairment [1, 2]: 2.4

Compound: 3,3′,5,5′-tetraisopropylbiphenyl-4,4′-bis(oxymethylene phosphate) [Example 3 group]
- Average score of neurological impairment [1, 2]: 2.8
- Number of apoptotic cells (brain cell apoptosis; rat, in vivo, iv, 40 mg/kg): 25.14 ± 2.54

Compound: CCCc1cc(-c2cc(CCC)c(O)c(CCC)c2)cc(CCC)c1O [Example 7 group, 4,4′-dihydroxy-3,3′,5,5′-tetrapropylbiphenyl]
- Average score of neurological impairment [1, 2]: 2.3
- Number of apoptotic cells (brain cell apoptosis; [3]): 20.28 ± 3.76

Compound: CC(C)c1cc(-c2cc(C(C)C)c(OC(=O)CCC(=O)O)c(C(C)C)c2)cc(C(C)C)c1O [Example 5 group, [4-(4′-hydroxy-3,3′,5,5′-tetraisopropylbiphenyl)oxy]-4-carbonyl butyric acid]
- Average score of neurological impairment [1, 2]: 2.4
- Number of apoptotic cells (brain cell apoptosis; [3]): 20.56 ± 4.29

Compound: CC(C)c1cc(-c2cc(C(C)C)c(Cl)c(C(C)C)c2)cc(C(C)C)c1O [Example 9 group, 4-chloro-4′-hydroxy-3,3′,5,5′-tetraisopropylbiphenyl]
- Average score of neurological impairment ([1]; rat, in vivo, iv, 40 mg/kg): 2.8
- Number of apoptotic cells (brain cell apoptosis; rat, in vivo, iv, 40 mg/kg): 25.47 ± 4.19

Compound: CC1=NN(c2ccccc2)C(=O)C1 [Edaravone injection, edaravone, reference compound]
- Number of apoptotic cells (brain cell apoptosis; ischemic reperfusion rat model, edaravone 3 mg/kg): 28.6 ± 4.90

Compound: CC(=O)OC(C)Oc1c(C(C)C)cc(-c2cc(C(C)C)c(O)c(C(C)C)c2)cc1C(C)C (stereo not shown) [Example 12 group, Ethyl 1-(4′-hydroxy-3,3′,5,5′-tetraisopropylbiphenyl-4-oxo)acetate]
- Average score of neurological impairment [1, 2]: 2.6
- Number of apoptotic cells (brain cell apoptosis; [3]): 26.27 ± 5.37

Compound: CC(C)c1cc(-c2cc(C(C)C)c(OC=O)c(C(C)C)c2)cc(C(C)C)c1O [Example 10 group]
- Average score of neurological impairment [1, 2]: 2.4
- Number of apoptotic cells (brain cell apoptosis; [3]): 22.18 ± 5.22

Compound: CC(=O)Oc1c(C(C)C)cc(-c2cc(C(C)C)c(OC(C)=O)c(C(C)C)c2)cc1C(C)C [Example 2 group, 3,3′,5,5′-tetraisopropylbiphenyl-4′-diacetate]
- Average score of neurological impairment [1, 2]: 2.5
- Number of apoptotic cells (brain cell apoptosis; [3]): 24.65 ± 3.41
